# Experimental data from ChEMBL document CHEMBL1240489, “Discovery of N-{1-[3-(3-oxo-2,3-dihydrobenzo[1,4]oxazin-4-yl)propyl]piperidin-4-yl}-2-phenylacetamide (Lu AE51090): an allosteric muscarinic M1 receptor agonist with unprecedented selectivity and procognitive potential” (J Med Chem, 2010).
# Tests used:
# [1] = molecular target: Neuropeptide Y receptor type 1 (Homo sapiens, UniProt P25929); assay: Binding affinity to human neuropeptide Y1 receptor by radioligand displacement assay
# [2] = molecular target: T1, Muscarinic acetylcholine receptor M2 (Homo sapiens, UniProt P08172); assay: Displacement of [3H]-AFDX-384 from human muscarinic M2 receptor expressed in CHO-K1 cells; type: cell-based
# T1 sequence (P08172 whole entry): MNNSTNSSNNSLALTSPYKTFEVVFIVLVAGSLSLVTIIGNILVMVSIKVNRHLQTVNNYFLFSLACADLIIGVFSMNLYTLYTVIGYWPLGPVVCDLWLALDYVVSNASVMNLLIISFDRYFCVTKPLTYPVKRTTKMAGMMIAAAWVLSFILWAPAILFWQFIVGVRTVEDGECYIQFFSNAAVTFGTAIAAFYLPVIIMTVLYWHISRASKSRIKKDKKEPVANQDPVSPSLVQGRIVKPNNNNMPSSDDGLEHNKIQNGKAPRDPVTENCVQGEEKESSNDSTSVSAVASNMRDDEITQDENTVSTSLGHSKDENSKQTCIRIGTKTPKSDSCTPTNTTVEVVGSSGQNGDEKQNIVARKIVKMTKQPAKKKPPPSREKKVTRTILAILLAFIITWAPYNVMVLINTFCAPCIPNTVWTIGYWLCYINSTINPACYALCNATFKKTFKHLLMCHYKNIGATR
# Substance-K receptor = Substance-K receptor (Homo sapiens, UniProt P21452); assay: Binding affinity to human NK2 receptor by radioligand displacement assay
# [3] = Binding affinity to Ca2+ channel by radioligand displacement assay
# D(4) dopamine receptor = D(4) dopamine receptor (Homo sapiens, UniProt P21917); assay: Binding affinity to human D4.4 receptor by radioligand displacement assay
# [4] = molecular target: Tyrosine-protein kinase Lyn (Homo sapiens, UniProt P07948); assay: Binding affinity to Lyn by enzyme assay
# [5] = molecular target: Kappa-type opioid receptor (Homo sapiens, UniProt P41145); assay: Binding affinity to kappa opioid receptor by radioligand displacement assay
# Histamine H3 receptor = Histamine H3 receptor (Homo sapiens, UniProt Q9Y5N1); assay: Binding affinity to human histamine H3 receptor by radioligand displacement assay
# [6] = molecular target: 5-hydroxytryptamine receptor 2C (Homo sapiens, UniProt P28335); assay: Binding affinity to human 5HT2C receptor agonist site by radioligand displacement assay
# [7] = Binding affinity to central benzodiazepine receptor by radioligand displacement assay
# [8] = molecular target: T2, Muscarinic acetylcholine receptor M3 (Homo sapiens, UniProt P20309); assay: Agonist activity at human muscarinic M3 receptor expressed in BHK-21 cells assessed as increase of acetylcholine-induced calcium flux at 10 uM by FLIPR assay relative to acetylcholine; type: functional, cell-based
# Target sequence in this assay (P20309 whole entry, looked up): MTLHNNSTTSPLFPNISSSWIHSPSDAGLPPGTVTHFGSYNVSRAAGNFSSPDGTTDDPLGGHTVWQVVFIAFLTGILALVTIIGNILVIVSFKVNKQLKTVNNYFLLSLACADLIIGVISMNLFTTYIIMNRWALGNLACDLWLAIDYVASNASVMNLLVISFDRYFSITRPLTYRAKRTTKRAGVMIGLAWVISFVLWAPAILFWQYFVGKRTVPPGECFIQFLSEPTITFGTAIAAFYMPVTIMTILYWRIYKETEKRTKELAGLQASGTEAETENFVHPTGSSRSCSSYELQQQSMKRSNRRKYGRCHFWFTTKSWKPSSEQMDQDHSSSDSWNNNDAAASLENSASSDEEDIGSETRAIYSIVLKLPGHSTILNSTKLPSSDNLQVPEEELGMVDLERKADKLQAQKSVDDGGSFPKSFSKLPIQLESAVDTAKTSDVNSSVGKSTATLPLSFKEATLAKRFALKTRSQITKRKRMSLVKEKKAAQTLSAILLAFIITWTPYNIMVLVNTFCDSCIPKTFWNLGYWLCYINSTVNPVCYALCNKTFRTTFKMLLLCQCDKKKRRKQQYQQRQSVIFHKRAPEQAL
# [9] = molecular target: Gastrin/cholecystokinin type B receptor (Homo sapiens, UniProt P32239); assay: Binding affinity to human CCK2 receptor by radioligand displacement assay
# [10] = Binding affinity to NMDA receptor PCP binding site by radioligand displacement assay
# [11] = molecular target: T3, Muscarinic acetylcholine receptor M5 (Homo sapiens) (UniProt P08912); assay: Agonist activity at human muscarinic M5 receptor expressed in BHK-21 cells assessed as increase of acetylcholine-induced calcium flux at 10 uM by FLIPR assay relative to acetylcholine; type: functional, cell-based
# T3 sequence (whole entry): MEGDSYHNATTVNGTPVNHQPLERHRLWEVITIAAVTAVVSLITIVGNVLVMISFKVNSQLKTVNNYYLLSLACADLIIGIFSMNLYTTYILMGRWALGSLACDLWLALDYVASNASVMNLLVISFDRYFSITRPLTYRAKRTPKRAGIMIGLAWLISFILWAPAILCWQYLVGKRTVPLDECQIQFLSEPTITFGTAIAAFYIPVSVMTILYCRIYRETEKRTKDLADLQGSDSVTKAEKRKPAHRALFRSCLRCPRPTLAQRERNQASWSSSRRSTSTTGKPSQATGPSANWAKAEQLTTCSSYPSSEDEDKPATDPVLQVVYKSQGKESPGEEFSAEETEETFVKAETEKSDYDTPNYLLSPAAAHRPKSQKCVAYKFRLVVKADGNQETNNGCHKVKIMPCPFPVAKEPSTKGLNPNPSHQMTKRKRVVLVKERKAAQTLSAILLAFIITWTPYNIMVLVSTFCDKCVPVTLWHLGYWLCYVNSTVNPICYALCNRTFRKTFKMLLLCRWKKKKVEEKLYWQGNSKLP
# [12] = molecular target: Sodium-dependent dopamine transporter (Homo sapiens, UniProt Q01959); assay: Binding affinity to human dopamine transporter by radioligand displacement assay
# Adenosine receptor A1 = Adenosine receptor A1 (Homo sapiens, UniProt P30542); assay: Binding affinity to human adenosine A1 receptor agonist site by radioligand displacement assay
# [13] = molecular target: Melatonin receptor type 1A (Homo sapiens, UniProt P48039); assay: Binding affinity to human MT1 receptor by radioligand displacement assay
# [14] = Binding affinity to adrenergic alpha1 receptor by radioligand displacement assay
# Adenosine receptor A2a = Adenosine receptor A2a (Homo sapiens, UniProt P29274); assay: Binding affinity to human adenosine A2A receptor by radioligand displacement assay
# [15] = molecular target: 5-hydroxytryptamine receptor 2B (Homo sapiens, UniProt P41595); assay: Binding affinity to human 5-HT2B agonist site receptor by radioligand displacement assay
# [16] = Binding affinity to L-type Ca2+ channel verapamil site by radioligand displacement assay
# [17] = Drug level in C57/6J mouse brain at 20 mg/kg, sc after 30 mins; type: ADME, organism-based; set-up: dose 20 mg/kg, route subcutaneous; conditions: read-out: Drug uptake
# [18] = Binding affinity to PDE5 by enzyme assay
# [19] = molecular target: High affinity choline transporter 1 (Homo sapiens, UniProt Q9GZV3); assay: Binding affinity to human choline transporter (CHT1) by radioligand displacement assay
# [20] = molecular target: 5-hydroxytryptamine receptor 3A (Homo sapiens, UniProt P46098); assay: Binding affinity to human 5-HT3 receptor by radioligand displacement assay
# Substance-P receptor = Substance-P receptor (Homo sapiens, UniProt P25103); assay: Binding affinity to human NK1 receptor by radioligand displacement assay
# [21] = molecular target: T2, Muscarinic acetylcholine receptor M3; assay: Displacement of [3H]-4-DAMP from human muscarinic M3 receptor expressed in BHK-21 cells; type: cell-based
# Target sequence in this assay (P20309 whole entry): as the sequence (P20309 whole entry, looked up) above
# [22] = molecular target: Sodium-dependent serotonin transporter (Homo sapiens, UniProt P31645); assay: Binding affinity to human 5-HT transporter by radioligand displacement assay
# Endothelin-1 receptor = Endothelin-1 receptor (Homo sapiens, UniProt P25101); assay: Binding affinity to human ETA receptor by radioligand displacement assay
# [23] = Oral bioavailability in rat plasma at 2 mg/kg; type: ADME, organism-based
# [24] = molecular target: Alpha-1B adrenergic receptor (Homo sapiens, UniProt P35368); assay: Binding affinity to human adrenergic Alpha-1B receptor by radioligand displacement assay
# Brain = assay: Protein binding in C57/6J mouse brain homogenates at 20 mg/kg, sc by equilibrium dialysis; type: ADME, organism-based; set-up: dose 20 mg/kg, route subcutaneous; conditions: in vivo
# [25] = molecular target: Neuronal acetylcholine receptor; alpha4/beta2 (Homo sapiens, UniProt P17787+P43681); assay: Binding affinity to nAChR alpha4beta2 receptor by radioligand displacement assay; type: protein-complex assay
# Chain of Neuronal acetylcholine receptor; alpha4/beta2 (P17787 whole entry): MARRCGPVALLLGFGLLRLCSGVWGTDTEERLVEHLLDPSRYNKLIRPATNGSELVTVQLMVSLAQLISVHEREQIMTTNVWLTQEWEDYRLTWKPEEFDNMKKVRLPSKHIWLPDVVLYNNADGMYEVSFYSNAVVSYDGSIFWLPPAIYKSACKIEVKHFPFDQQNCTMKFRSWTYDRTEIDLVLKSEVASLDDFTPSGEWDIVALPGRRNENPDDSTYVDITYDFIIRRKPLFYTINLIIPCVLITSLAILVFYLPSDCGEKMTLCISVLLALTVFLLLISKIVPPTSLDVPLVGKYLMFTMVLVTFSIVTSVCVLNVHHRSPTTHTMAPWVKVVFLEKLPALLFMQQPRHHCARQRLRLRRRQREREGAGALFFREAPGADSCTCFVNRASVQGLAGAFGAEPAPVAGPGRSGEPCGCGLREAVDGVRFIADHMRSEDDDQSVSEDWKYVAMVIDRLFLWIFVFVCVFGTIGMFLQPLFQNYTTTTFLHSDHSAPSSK
# Chain of Neuronal acetylcholine receptor; alpha4/beta2 (P43681 whole entry): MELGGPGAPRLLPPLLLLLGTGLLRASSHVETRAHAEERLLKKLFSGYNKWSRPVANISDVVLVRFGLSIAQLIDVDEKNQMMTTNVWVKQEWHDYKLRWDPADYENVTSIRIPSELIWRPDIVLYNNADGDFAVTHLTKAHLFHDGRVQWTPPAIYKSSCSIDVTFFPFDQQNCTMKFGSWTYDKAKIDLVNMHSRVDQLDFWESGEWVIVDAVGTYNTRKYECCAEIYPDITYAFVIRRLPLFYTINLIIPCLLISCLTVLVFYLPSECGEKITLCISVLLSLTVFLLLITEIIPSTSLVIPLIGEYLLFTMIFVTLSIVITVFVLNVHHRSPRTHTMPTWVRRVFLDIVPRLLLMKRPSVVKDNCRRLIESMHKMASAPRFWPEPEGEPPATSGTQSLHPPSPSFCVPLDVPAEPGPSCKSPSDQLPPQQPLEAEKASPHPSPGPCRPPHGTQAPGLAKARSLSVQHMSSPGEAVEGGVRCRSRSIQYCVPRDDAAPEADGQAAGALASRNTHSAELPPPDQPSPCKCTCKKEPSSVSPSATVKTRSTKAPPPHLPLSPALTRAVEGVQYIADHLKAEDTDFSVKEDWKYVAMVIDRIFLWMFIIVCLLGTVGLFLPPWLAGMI
# Chain of 5-hydroxytryptamine receptor 2B (P41595 whole entry): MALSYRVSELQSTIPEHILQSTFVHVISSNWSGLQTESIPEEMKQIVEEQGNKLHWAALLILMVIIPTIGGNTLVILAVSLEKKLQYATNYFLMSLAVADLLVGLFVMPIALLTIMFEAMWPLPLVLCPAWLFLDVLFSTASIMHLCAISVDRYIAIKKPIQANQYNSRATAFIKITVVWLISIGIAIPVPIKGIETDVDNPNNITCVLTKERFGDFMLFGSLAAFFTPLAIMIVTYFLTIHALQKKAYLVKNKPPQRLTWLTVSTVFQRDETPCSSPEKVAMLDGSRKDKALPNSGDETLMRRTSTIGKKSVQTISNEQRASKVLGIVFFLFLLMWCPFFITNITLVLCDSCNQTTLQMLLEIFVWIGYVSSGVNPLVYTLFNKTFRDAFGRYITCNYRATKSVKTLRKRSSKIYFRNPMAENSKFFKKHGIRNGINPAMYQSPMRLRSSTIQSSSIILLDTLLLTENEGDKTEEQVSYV
# Chain of Substance-K receptor (P21452 whole entry): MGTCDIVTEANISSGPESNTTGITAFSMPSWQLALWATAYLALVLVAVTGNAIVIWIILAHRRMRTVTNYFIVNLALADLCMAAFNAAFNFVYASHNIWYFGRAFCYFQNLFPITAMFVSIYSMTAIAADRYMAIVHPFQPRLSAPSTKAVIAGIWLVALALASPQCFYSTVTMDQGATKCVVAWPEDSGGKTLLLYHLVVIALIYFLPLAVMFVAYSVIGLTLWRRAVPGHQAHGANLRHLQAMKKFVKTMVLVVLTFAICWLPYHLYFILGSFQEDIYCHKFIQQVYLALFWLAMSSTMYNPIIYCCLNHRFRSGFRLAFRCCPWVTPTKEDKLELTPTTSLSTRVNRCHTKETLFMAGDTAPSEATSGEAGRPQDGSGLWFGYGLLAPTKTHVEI
# Chain of Melatonin receptor type 1A (P48039 whole entry): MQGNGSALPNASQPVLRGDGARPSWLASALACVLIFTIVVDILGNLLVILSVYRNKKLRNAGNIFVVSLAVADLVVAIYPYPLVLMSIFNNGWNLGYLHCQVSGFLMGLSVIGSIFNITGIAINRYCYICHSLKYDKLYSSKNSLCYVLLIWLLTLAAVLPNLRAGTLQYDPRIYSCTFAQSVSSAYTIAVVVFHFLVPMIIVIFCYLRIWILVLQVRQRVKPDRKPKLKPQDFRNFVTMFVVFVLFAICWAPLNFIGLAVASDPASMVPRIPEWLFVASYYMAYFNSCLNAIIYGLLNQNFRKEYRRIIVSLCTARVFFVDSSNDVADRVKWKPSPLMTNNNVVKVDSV
# Chain of 5-hydroxytryptamine receptor 2C (P28335 whole entry): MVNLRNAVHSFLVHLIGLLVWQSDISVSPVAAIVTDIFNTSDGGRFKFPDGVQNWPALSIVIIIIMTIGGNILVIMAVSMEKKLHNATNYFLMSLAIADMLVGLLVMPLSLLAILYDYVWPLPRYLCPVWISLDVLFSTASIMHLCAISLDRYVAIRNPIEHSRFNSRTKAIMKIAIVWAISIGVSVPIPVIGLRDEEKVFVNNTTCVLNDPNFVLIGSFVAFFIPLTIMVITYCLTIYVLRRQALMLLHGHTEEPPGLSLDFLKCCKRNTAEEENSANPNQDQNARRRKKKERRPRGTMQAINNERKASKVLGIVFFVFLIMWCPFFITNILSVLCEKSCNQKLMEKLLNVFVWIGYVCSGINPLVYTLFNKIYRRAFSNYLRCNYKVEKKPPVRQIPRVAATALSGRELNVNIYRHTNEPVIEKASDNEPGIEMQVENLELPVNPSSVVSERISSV
# Chain of Neuropeptide Y receptor type 1 (P25929 whole entry): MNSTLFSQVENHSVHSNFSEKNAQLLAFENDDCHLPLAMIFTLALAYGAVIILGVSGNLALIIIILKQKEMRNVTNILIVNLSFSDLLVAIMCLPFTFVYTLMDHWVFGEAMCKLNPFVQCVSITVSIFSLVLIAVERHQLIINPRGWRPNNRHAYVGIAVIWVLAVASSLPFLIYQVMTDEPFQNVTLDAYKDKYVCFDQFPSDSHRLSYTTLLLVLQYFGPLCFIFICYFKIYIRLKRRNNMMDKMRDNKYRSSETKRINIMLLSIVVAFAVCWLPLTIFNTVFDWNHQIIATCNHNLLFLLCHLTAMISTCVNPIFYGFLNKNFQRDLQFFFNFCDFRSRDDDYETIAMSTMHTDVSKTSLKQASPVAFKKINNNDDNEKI
# Chain of Adenosine receptor A2a (P29274 whole entry): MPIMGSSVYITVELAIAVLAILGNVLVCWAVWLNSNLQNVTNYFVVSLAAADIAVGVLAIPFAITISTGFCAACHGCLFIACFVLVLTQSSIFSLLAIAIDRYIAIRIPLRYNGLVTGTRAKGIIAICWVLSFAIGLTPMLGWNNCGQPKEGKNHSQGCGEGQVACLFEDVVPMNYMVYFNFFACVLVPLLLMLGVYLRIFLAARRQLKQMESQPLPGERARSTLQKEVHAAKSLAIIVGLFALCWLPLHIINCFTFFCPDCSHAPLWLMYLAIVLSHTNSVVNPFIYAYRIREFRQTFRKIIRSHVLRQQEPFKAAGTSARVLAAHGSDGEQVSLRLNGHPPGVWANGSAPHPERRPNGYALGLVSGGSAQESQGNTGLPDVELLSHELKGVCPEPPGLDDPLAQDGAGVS
# Chain of Endothelin-1 receptor (P25101 whole entry): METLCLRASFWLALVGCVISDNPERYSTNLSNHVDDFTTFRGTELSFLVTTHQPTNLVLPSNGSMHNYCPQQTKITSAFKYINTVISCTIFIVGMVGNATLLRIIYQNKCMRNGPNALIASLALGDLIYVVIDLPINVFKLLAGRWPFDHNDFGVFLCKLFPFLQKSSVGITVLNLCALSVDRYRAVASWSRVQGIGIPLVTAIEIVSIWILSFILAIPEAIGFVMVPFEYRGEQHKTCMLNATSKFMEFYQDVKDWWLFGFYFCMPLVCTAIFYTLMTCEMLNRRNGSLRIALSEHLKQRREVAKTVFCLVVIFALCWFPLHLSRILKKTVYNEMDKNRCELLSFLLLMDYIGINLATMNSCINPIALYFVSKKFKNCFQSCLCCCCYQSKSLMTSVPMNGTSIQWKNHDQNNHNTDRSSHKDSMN
smiles,measurement,setting,value
O=C(Cc1ccccc1)NC1CCN(CCCN2C(=O)COc3ccccc32)CC1,Ki,[1],≥ 1000 nM
same,Ki,[2],2200 nM
same,Ki,Substance-K receptor,≥ 1000 nM
same,Ki,[3],≥ 1000 nM
same,Ki,D(4) dopamine receptor,≥ 1000 nM
same,Ki,[4],≥ 1000 nM
same,Ki,[5],≥ 1000 nM
same,Ki,Histamine H3 receptor,≥ 1000 nM
same,Ki,[6],≥ 1000 nM
same,Ki,[7],≥ 1000 nM
same,Emax,[8],1%
same,Ki,[9],≥ 1000 nM
same,Ki,[10],≥ 1000 nM
same,Emax,[11],1%
same,Ki,[12],≥ 1000 nM
same,Ki,Adenosine receptor A1,≥ 1000 nM
same,Ki,[13],≥ 1000 nM
same,Ki,[14],≥ 1000 nM
same,Ki,Adenosine receptor A2a,≥ 1000 nM
same,Ki,[15],≥ 1000 nM
same,Ki,[16],≥ 1000 nM
same,concentration at 0.5 h,[17],440 ng/g
same,Ki,[18],≥ 1000 nM
same,Ki,[19],≥ 1000 nM
same,Ki,[20],≥ 1000 nM
same,Ki,Substance-P receptor,≥ 1000 nM
same,Ki,[21],7000 nM
same,Ki,[22],≥ 1000 nM
same,Ki,Endothelin-1 receptor,≥ 1000 nM
same,bioavailability,[23],4%
same,Ki,[24],910 nM
same,Activity,Brain,70%
same,Ki,[25],≥ 1000 nM
